Test results taken from article PMC5766233, “Ternary copper(II) complex: NCI60 screening, toxicity studies, and evaluation of efficacy in xenograft models of nasopharyngeal carcinoma” (PLoS ONE, 2018).
pIC50: −log10 of the molar value.

Legend:
CYP 2B6 = target: T1, CYP 2B6 (Homo sapiens, UniProt P20813); test: CYP450 inhibition assay, pooled human liver microsomes; conditions: read-out: IC50 CYP 2B6; probe bupropion
T1 sequence (P20813 1-491): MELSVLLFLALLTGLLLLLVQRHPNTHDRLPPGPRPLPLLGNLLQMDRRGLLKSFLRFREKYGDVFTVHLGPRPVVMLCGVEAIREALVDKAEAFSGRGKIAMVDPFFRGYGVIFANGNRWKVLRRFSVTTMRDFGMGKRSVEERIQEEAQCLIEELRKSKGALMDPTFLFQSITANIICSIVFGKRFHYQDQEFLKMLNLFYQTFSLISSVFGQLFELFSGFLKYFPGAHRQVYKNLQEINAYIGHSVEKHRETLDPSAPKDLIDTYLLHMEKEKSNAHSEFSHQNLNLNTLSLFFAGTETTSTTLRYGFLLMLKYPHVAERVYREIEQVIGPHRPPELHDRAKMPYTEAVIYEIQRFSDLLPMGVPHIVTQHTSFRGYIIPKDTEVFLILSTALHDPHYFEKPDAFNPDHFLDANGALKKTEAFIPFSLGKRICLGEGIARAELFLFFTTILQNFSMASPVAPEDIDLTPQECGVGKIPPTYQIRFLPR
Protocol: (§1) In the CYP inhibition assay, human liver microsomes were incubated with the Cu(II) complex or reference standard. The inhibitory effects of these compounds were investigated against the major CYP isoforms namely 1A2, 2C9, 2C19, 2D6, 2B6, 2C8 and 3A4 with their respective isoform probe substrates in one reaction mixture (pooled probe substrate format using LC-MS/MS).
(§2) Pooled human liver microsomes (Sekisui Xeno Tech, LLC., Kansas City, KS, USA) were incubated with different concentrations of Cu(II) complex or reference standards in buffer containing 0.1% DMSO for 10 min at 37°C and the residual enzyme activity was measured using pooled probe substrates method by pooled LC-MS/MS. Briefly, incubation mixtures were prepared in a total volume of 200 μL with final component concentrations as follows: 0.1 M potassium phosphate buffer (pH 7.4), 1.5 mM NADPH, and 0.25 mg/ml HLM. […] After 20 min of incubation, the reactions were terminated by addition of 200 μL ice-cold acetonitrile (Rankem, Avantor Performance Materials India Limited, Andhra Pradesh, India) containing telmisartan and carbamazepine as internal standards (all probe substrates and standards were from Sigma Aldrich). Each reaction mixture was centrifuged at 3,500 rpm for 5 min and the supernatant was subjected to LC-MS/MS analysis. The percent inhibition was calculated using the following equation: %Inhibition=100‑[(activityintestwells/activityinbasalcontrolwells)×100]

CYP 2C8 = target: T2, CYP 2C8 (Homo sapiens, UniProt P10632); test: as above; conditions: read-out: IC50 CYP 2C8; probe amodiaquine
T2 sequence (P10632 1-490): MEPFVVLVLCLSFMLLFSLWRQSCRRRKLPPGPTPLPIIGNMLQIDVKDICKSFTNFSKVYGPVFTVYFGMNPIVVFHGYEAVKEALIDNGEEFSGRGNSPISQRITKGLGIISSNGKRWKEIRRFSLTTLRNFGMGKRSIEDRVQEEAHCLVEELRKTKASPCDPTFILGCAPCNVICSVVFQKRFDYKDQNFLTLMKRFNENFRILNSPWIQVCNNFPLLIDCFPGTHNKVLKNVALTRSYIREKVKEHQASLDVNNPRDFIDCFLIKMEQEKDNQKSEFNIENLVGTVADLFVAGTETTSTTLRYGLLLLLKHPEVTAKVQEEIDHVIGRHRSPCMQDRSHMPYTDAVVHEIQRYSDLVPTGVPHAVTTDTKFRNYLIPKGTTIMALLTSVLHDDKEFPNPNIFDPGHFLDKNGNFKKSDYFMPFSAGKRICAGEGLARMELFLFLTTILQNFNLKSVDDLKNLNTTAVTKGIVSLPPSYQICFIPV
Protocol: as §1, §2

[1] = Acute in vivo toxicity, single dose; set-up: species or system NOD scid gamma female mice
Protocol: Acute toxicity caused by the complex was tested on a method modified from the NCI single dose method. The experiment was performed to find the maximum tolerated dose (MTD) for the calculation of doses for repeat-dose animal testing; the experiment was designed to minimize both the use of compound tested and the number of animals to be sacrificed. […] Five doses, viz. 35.0, 17.5, 12.5, 7.5 and 5.5 mg/kg body weight of the Cu(II) complex, were injected intraperitoneally as single doses into each mouse respectively and the mice were observed daily for 14 days for drug-induced toxicity. The findings of the acute toxicity study are listed in S1 Table.
Determination of acute toxicity was carried out using a method adapted from the NCI [43]. Five mice were randomly separated into five cages. Five doses, i.e. 35.0, 17.5, 12.5, 7.5 and 5.5 mg/kg of body weight of Cu(II) complex were injected intraperitoneally as a single dose into each mouse respectively. After the drug administration, mice were observed hourly for any signs of toxicity, mortality, changes in general behavior and physical activities for the first 4 hours, then 4 hourly for 1 day followed by daily observation for 2 weeks. The signs which were monitored and recorded during this study included hypoactivity, lethargy, hypoapnoea, abnormal gait and posture, tremors, arching and rolling, convulsions, salivation and diarrhea. Mouse death during the period of observation was considered as death due to toxic effects of the test compound. The lethal dose and maximum tolerated dose (MTD) were determined during this study. At the end of the experiment, the survivors were sacrificed for necropsy. Gross and histopathological examinations were performed on the major internal organs including the heart, lung, liver, kidney and spleen.

## CC(C)(N)C(=O)[O-].O.O=[N+]([O-])[O-].[Cu+2].c1cnc2c(c1)ccc1cccnc12 [Cu(II) complex, [Cu(phen)(C-dmg)(H2O)]NO3]
CYP 2B6
  pIC50: 5.12
CYP 2C8
  pIC50: 4.99
[1]; 5.5 mg/kg single ip dose
  Mortality: No
  Observation of mice behavioral and physical changes (after injection): No clinical signs occurred. It showed normal behavior patterns when provoked.
  Observation of mice behavioral and physical changes (later): Normal behavior and activities.
[1]; 7.5 mg/kg single ip dose
  Mortality: No
  Observation of mice behavioral and physical changes (after injection): No abnormal clinical signs occurred. It showed normal behavior patterns when provoked.
  Observation of mice behavioral and physical changes (later): Normal behavior and activities.
[1]; 12.5 mg/kg single ip dose
  Mortality: No
  Observation of mice behavioral and physical changes (after injection): After drug injection, mouse stayed at corner of its cage but resumed its normal behavior and physical activities after 45 min. Body movement happened. It showed normal behavior patterns when provoked.
  Observation of mice behavioral and physical changes (later): Normal behavior and activities.
[1]; 17.5 mg/kg single ip dose
  Mortality: No
  Observation of mice behavioral and physical changes (after injection): After drug injection, mouse stayed at corner of the cage but resumed its normal behavior and physical activities after 45 min. Body movement happened. It showed normal behavior patterns when provoked.
  Observation of mice behavioral and physical changes (later): Normal behavior and activities.
[1]; 35 mg/kg single ip dose
  Histopathological examination, spleen: increased in multinucleated giant cells
[1]; 35.0 mg/kg single ip dose
  Mortality: Yes
  Observation of mice behavioral and physical changes (after injection): Mouse was immobile and staying at one corner of the cage about 30 min after drug injection. After 0.5, 1, 2, 3 & 4 h, it was still immobile. Unresponsive to provocation.
  Observation of mice behavioral and physical changes (later): It was found dead on Day 2; blood stained urine noted.
[1]; single dose treatment, intraperitoneal, estimated
  MTD: 17.5 mg/kg
[1]; single intraperitoneal dose, estimated
  LD50: 26.25 mg/kg
[1]; single ip doses other than 35 mg/kg
  Histopathological examination, all organs examined: no significant morphological changes
